Results on 6 molecules are retold here after patent US9050267B2 (Novartis AG, priority 2011, dated 2015).

Data set [1] is described as follows: Aerodynamic particle size distribution, NEXT GENERATION IMPACTOR, passive blister dry powder inhaler. In kind it is physicochemical. The following applies: Lot A2; for % deviation in FPFd2Q<500: going from 35 L/min to 47 L/min. The method, then:
The aerodynamic particle size distribution (aPSD) of the resulting aerosol dose was assessed using a NEXT GENERATION IMPACTOR™ at flow rates of 35 LPM and 47 LPM, corresponding to inhaler pressure drops of 4 kPa and 6 kPa, respectively. Note for present purposes flow rate and pressure drop are related via the inhaler flow resistance, and are used interchangeably. The mass distribution of each active ingredient on the cascade impactor stages was determined using an HPLC assay.
Total lung deposition as a function of variations in flow rate (O) is dependent not only on the aerodynamic particle size distribution of the aerosol, but also on the variations in inertial impaction which occur with changes in flow rate. In other words, for a given aPSD, the lung dose is expected to decrease as the flow rate increases. In order to achieve flow rate independence in-vivo, it is important to achieve a balance of these two opposing factors. A simple way to account for the dependence of lung dose on both variables, i.e. aerodynamic particle size cutoff diameter, d, and flow rate, Q, is to express the aPSD in terms of a fine particle fraction cut-off which incorporates both variables. Assuming oropharyngeal losses are determined largely by inertial impaction, the cut-off for lung dose may be expressed in terms of the impaction parameter, d^2Q. The selected cut-off d^2Q of 500 μm^2-L/min was chosen to represent a range of inhalers, based on the fact that the best correlate of lung deposition is found for the fraction of particles with an aerodynamic size of less than 3 μm, and a medium resistance inhaler is typically tested at a flow rate of about 60 L/min.

For data set [2] the following is noted: TURBUHALER, cited from earlier work.
The target in a further data set is β2-adrenoceptor (Homo sapiens, UniProt P07550). Conditions: cited from earlier work.
For data set [3] the following is noted: cited from earlier work.
Setting [4] is: pressure drop 4 kPa, flow rate 35 L/min.
The mark [5] stands for this setting: pressure drop 6 kPa, flow rate 47 L/min.

Structures are written as SMILES. Structures can show the parent of a compound that is named as a salt. Where two headings read alike, the source gives them in different places. Peptide text beside a SMILES is read from it.

Chain of β2-adrenoceptor (P07550 whole entry, species assumed): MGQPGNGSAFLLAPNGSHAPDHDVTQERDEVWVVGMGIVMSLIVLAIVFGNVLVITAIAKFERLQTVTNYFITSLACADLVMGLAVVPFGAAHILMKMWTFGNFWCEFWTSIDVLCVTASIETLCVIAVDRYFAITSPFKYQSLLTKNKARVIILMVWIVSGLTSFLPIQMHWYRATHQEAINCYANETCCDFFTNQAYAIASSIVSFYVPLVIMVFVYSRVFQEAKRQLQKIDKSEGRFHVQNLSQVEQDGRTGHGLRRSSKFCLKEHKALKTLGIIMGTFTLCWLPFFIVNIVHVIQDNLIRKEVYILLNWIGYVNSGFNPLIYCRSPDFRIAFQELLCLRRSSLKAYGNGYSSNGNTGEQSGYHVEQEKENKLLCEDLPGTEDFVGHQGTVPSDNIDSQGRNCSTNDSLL

Consider `C[N+]1(C)CCC(OC(=O)C(O)(c2ccccc2)C2CCCC2)C1.[Br-]` (centres unmarked) [Glycopyrrolate, 3-[(cyclopentyl-hydroxyphenyl-acetyl)oxy]-1,1-dimethylpyrrolidinium bromide], for which, in data set [1], the “% deviation in FPFd2Q<500” value came out at 8.1%.

For `CCc1cc2c(cc1CC)CC(NC[C@H](O)c1ccc(O)c3[nH]c(=O)ccc13)C2` [Indacaterol maleate, (R)-5-[2-(5,6-diethyl-indan-2-ylamino)-1-hydroxyethyl]-8-hydroxy-1H-quinolin-2-one], in data set [1] (setting [4]), the “FPF<3.3 μm” value is given as 57 % DD, the MMAD came out at 2.8 μm and the “d^2Q < 500” value amounted to 65. In data set [1] (setting [5]), the “FPF<3.3 μm” value stood at 69 % DD, the MMAD was determined as 2.3 μm and the “d^2Q < 500” value came to 68.

Regarding `CCCC1O[C@@H]2C[C@H]3[C@@H]4CCC5=CC(=O)C=C[C@]5(C)[C@H]4[C@@H](O)C[C@]3(C)[C@]2(C(=O)CO)O1` (some centres unmarked) [budesonide], the figures for the total lung deposition in data set [2] (breathe more slowly (comfortable inhalation manoeuvre)) and in data set [2] (breathe quickly (forceful inhalation manoeuvre)) were 15% and 28%, respectively.

`CCc1cc2c(cc1CC)CC(NC[C@H](O)c1ccc(O)c3[nH]c(=O)ccc13)C2` [indacaterol, (R)-5-[2-(5,6-diethyl-indan-2-ylamino)-1-hydroxyethyl]-8-hydroxy-1H-quinolin-2-one]: at β2-adrenoceptor, the duration of action entry was “over 24 hours” and the onset of action result is listed as “about 10 minutes”. Moreover, in data set [1], the “% deviation in FPFd2Q<500” value came to 4.6%.

Turning to `O=C([O-])CC(O)(CC(=O)[O-])C(=O)[O-].[Na+].[Na+].[Na+]` [sodium citrate], the “Dry Tg” value in data set [3] (pH > 7) is on record as 170 (pH > 7) ° C.

Regarding `CC(C)C[C@H](NC(=O)[C@H](CC(C)C)NC(=O)[C@@H](N)CC(C)C)C(=O)O` [trileucine] (H-Leu-Leu-Leu-OH), the Dry Tg in data set [3] (pH dependent) is 70 to 100 °C.
